PubChem BioAssay AID2060909 (Molecular Pharmacology Branch, DTP, NCI, 2025)
Values joined by “and” are separate entries in the source; they are usually repeats but may differ in a detail not shown here. Equal entries are not always repeated.

System: 362531-283-R-J2-PDC complex spheroid viability
Test: Anticancer human tumor 362531-283-R-J2-PDC patient-derived colon adenocarcinoma cell line growth inhibition [RAS]
Settings: for viability, T/C: stronger effect = lower value
Procedure, shortened: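 Multi-cell-type spheroids: tumor cells plus HUVEC endothelial cells and mesenchymal stem cells. RAS-pathway inhibitors were combined with targeted agents, each dosed in half-log steps down from clinical Cmax, or from 10 microM when Cmax was unknown.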

[1] = curve of first compound, second compound 0.0316 µM
[2] = curve of first compound, second compound 0.1 µM
[3] = curve of first compound, second compound 0.316 µM
[4] = curve of first compound, second compound 1 µM
[5] = second compound 0.0316 µM, first compound 0.00316 µM
[6] = second compound 0.0316 µM, first compound 0.01 µM
[7] = second compound 0.0316 µM, first compound 0.0316 µM
[8] = second compound 0.0316 µM, first compound 0.1 µM
[9] = second compound 0.1 µM, first compound 0.00316 µM
[10] = second compound 0.1 µM, first compound 0.01 µM
[11] = second compound 0.1 µM, first compound 0.0316 µM
[12] = second compound 0.1 µM, first compound 0.1 µM
[13] = second compound 0.316 µM, first compound 0.00316 µM
[14] = second compound 0.316 µM, first compound 0.01 µM
[15] = second compound 0.316 µM, first compound 0.0316 µM
[16] = second compound 0.316 µM, first compound 0.1 µM
[17] = second compound 1 µM, first compound 0.00316 µM
[18] = second compound 1 µM, first compound 0.01 µM
[19] = second compound 1 µM, first compound 0.0316 µM
[20] = second compound 1 µM, first compound 0.1 µM
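Note: spheroids exposed to the agents for 7 days before readout.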
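Throughout, for viability, T/C: luminescence viability as percent of DMSO vehicle control wells.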

**Q.** What does the source list for `CC(C)NCC(C(=O)N1CCN(c2ncnc3c2C(C)CC3O)CC1)c1ccc(Cl)cc1` (stereo unspecified)?
**A.** viability, T/C (compound 0.0316 µM): 103% [middle of 4 runs]; viability, T/C (compound 0.1 µM): 103% [middle of 4 runs]; viability, T/C (compound 0.316 µM): 103% [middle of 4 runs]; viability, T/C (compound 1 µM): 101% [middle of 4 runs]; viability, T/C (compound 3.16 µM): 98.5% and 102% (2×) and 98.2%; viability, T/C (compound 10 µM): 98.2% [middle of 4 runs]; IC50 (curve of compound): > 10000 nM

**Q.** With `C=CC(=O)N1CCN(c2nc(OCC3CCCN3C)nc3c(F)c(-c4nc(N)cc(C)c4C(F)(F)F)c(Cl)cc23)C(C)C1` (stereo unspecified) + C#Cc1c(F)ccc2cc(O)cc(-c3ncc4c(N5CC6CCC(C5)N6)nc(OCC56CCCN5CC(F)C6)nc4c3F)c12 as the compound, how does the IC50 [1] read?
**A.** > 1000 nM

**Q.** What about the IC50 [2] of the same compound?
**A.** > 1000 nM

**Q.** And the IC50 [3]?
**A.** > 1000 nM

**Q.** And the IC50 [4]?
**A.** > 1000 nM

**Q.** And the IC50 (curve of first compound, second compound 3.16 µM)?
**A.** > 1000 nM

**Q.** What about the IC50 (curve of first compound, second compound 10 µM) of the same compound?
**A.** < 3.16 nM

**Q.** What about the viability, T/C [5] of the same compound?
**A.** 98.1%

**Q.** And the viability, T/C [6]?
**A.** 94.4%

**Q.** And the viability, T/C [7]?
**A.** 95.5%

**Q.** And the viability, T/C [8]?
**A.** 98.4%

**Q.** What about the viability, T/C (second compound 0.0316 µM, first compound 0.316 µM) of the same compound?
**A.** 97.8%

**Q.** And the viability, T/C (second compound 0.0316 µM, first compound 1 µM)?
**A.** 89.6%

**Q.** What about the viability, T/C [9] of the same compound?
**A.** 93.6%

**Q.** And the viability, T/C [10]?
**A.** 93.1%

**Q.** And the viability, T/C [11]?
**A.** 97.1%

**Q.** What about the viability, T/C [12] of the same compound?
**A.** 92.3%

**Q.** What about the viability, T/C (second compound 0.1 µM, first compound 0.316 µM) of the same compound?
**A.** 98.7%

**Q.** What about the viability, T/C (second compound 0.1 µM, first compound 1 µM) of the same compound?
**A.** 98.3%

**Q.** And the viability, T/C [13]?
**A.** 82.6%

**Q.** What about the viability, T/C [14] of the same compound?
**A.** 78.6%

**Q.** What about the viability, T/C [15] of the same compound?
**A.** 90.9%

**Q.** And the viability, T/C [16]?
**A.** 97.8%

**Q.** What about the viability, T/C (second compound 0.316 µM, first compound 0.316 µM) of the same compound?
**A.** 89.3%

**Q.** And the viability, T/C (second compound 0.316 µM, first compound 1 µM)?
**A.** 90.7%

**Q.** And the viability, T/C [17]?
**A.** 80.7%

**Q.** And the viability, T/C [18]?
**A.** 74.4%

**Q.** What about the viability, T/C [19] of the same compound?
**A.** 82.7%

**Q.** What about the viability, T/C [20] of the same compound?
**A.** 70.4%

**Q.** What about the viability, T/C (second compound 1 µM, first compound 0.316 µM) of the same compound?
**A.** 82.7%

**Q.** What about the viability, T/C (second compound 1 µM, first compound 1 µM) of the same compound?
**A.** 74.4%

**Q.** What about the viability, T/C (second compound 3.16 µM, first compound 0.00316 µM) of the same compound?
**A.** 66.5%

**Q.** And the viability, T/C (second compound 3.16 µM, first compound 0.01 µM)?
**A.** 69%

**Q.** And the viability, T/C (second compound 3.16 µM, first compound 0.0316 µM)?
**A.** 71.2%

**Q.** What about the viability, T/C (second compound 3.16 µM, first compound 0.1 µM) of the same compound?
**A.** 80.8%

**Q.** And the viability, T/C (second compound 3.16 µM, first compound 0.316 µM)?
**A.** 58.1%

**Q.** And the viability, T/C (second compound 3.16 µM, first compound 1 µM)?
**A.** 71.7%

**Q.** What about the viability, T/C (second compound 10 µM, first compound 0.00316 µM) of the same compound?
**A.** 39.9%

**Q.** What about the viability, T/C (second compound 10 µM, first compound 0.01 µM) of the same compound?
**A.** 48%

**Q.** What about the viability, T/C (second compound 10 µM, first compound 0.0316 µM) of the same compound?
**A.** 46.7%

**Q.** What about the viability, T/C (second compound 10 µM, first compound 0.1 µM) of the same compound?
**A.** 38.1%

**Q.** What about the viability, T/C (second compound 10 µM, first compound 0.316 µM) of the same compound?
**A.** 49.6%

**Q.** And the viability, T/C (second compound 10 µM, first compound 1 µM)?
**A.** 42.7%

**Q.** What does the source list for `CC(C)n1nc(-c2ccc3oc(N)nc3c2)c2c(N)ncnc21` + C=CC(=O)N1CCN(c2nc(OCC3CCCN3C)nc3c(F)c(-c4nc(N)cc(C)c4C(F)(F)F)c(Cl)cc23)C(C)C1?
**A.** IC50 (curve of first compound, second compound 0.00316 µM): > 100 nM; IC50 (curve of first compound, second compound 0.01 µM): > 100 nM; IC50 [1]: > 100 nM; IC50 [2]: > 100 nM; IC50 [3]: > 100 nM; IC50 [4]: > 100 nM; viability, T/C (second compound 0.00316 µM, first compound 0.000316 µM): 97.8%; viability, T/C (second compound 0.00316 µM, first compound 0.001 µM): 91.8%; viability, T/C (second compound 0.00316 µM, first compound 0.00316 µM): 101%; viability, T/C (second compound 0.00316 µM, first compound 0.01 µM): 89.2%; viability, T/C (second compound 0.00316 µM, first compound 0.0316 µM): 62.9%; viability, T/C (second compound 0.00316 µM, first compound 0.1 µM): 97.1%; viability, T/C (second compound 0.01 µM, first compound 0.000316 µM): 93.5%; viability, T/C (second compound 0.01 µM, first compound 0.001 µM): 92.2%; viability, T/C (second compound 0.01 µM, first compound 0.00316 µM): 105%; viability, T/C (second compound 0.01 µM, first compound 0.01 µM): 87.3%; viability, T/C (second compound 0.01 µM, first compound 0.0316 µM): 54.9%; viability, T/C (second compound 0.01 µM, first compound 0.1 µM): 89.7%; viability, T/C (second compound 0.0316 µM, first compound 0.000316 µM): 100%; viability, T/C (second compound 0.0316 µM, first compound 0.001 µM): 95.9%; viability, T/C [5]: 102%; viability, T/C [6]: 80.7%; viability, T/C [7]: 65.9%; viability, T/C [8]: 101%; viability, T/C (second compound 0.1 µM, first compound 0.000316 µM): 91.9%; viability, T/C (second compound 0.1 µM, first compound 0.001 µM): 93.1%; viability, T/C [9]: 99.6%; viability, T/C [10]: 87%; viability, T/C [11]: 86.2%; viability, T/C [12]: 64.5%; viability, T/C (second compound 0.316 µM, first compound 0.000316 µM): 107%; viability, T/C (second compound 0.316 µM, first compound 0.001 µM): 106%; viability, T/C [13]: 104%; viability, T/C [14]: 106%; viability, T/C [15]: 68.2%; viability, T/C [16]: 82.7%; viability, T/C (second compound 1 µM, first compound 0.000316 µM): 107%; viability, T/C (second compound 1 µM, first compound 0.001 µM): 105%; viability, T/C [17]: 97%; viability, T/C [18]: 107%; viability, T/C [19]: 49.6%; viability, T/C [20]: 81.5%
